The text below walks through data of patent EP0979653A1, “REMEDY FOR CHRONIC FATIGUE SYNDROME” (KANEBO, LTD., priority 1996, dated 1998).

Where a name gives a salt, the structure may show the parent alone.

One series deals with patients with CFS. Description: Questioning of patients with CFS about lassitude, weakness and psychoneurotic symptom. The format is in vivo, human. Particulars: 100 mg intravenously daily for 14 days. How it is done: (§1) An injection containing 100 mg of a test compound was intravenously administered to two patients with CFS (A, B), continuously, for 14 days. The measurement of DHAS concentration in plasma was conducted before administration and 13 hours after administration with respect to the first and second days, while the measurement was conducted before administration with regard to the third, fifth, eighth, eleventh and fourteenth days. On the fourteenth day from the day on which first administration was conducted, the patients were questioned about lassitude, weakness and psychoneurotic symptom.

Series [1] can be described thus: Measurement of DHAS concentration in plasma of patients with CFS given the injection intravenously. Type of series: in vivo. The following applies: human, iv, 100 mg, 100 mg intravenously daily for 14 days; for concentration at 13 h: 13 hours after administration; for concentration at 48 h / concentration at 72 h / concentration at 120 h / concentration at 192 h / concentration at 264 h / concentration at 336 h: before administration; for concentration at 72 h: 3 days; for concentration at 120 h: 5 days; for concentration at 192 h: 8 days; for concentration at 264 h: 11 days; for concentration at 336 h: 14 days. As to the method: as §1

The subject of the next series is ^51Cr-labelled K562. Put plainly: Natural killer (NK) activity of patient B, cytotoxic activity against 51Cr-labelled target cells. The format is in vivo, human. As to the method:
as §1
With regard to the patient B, a natural killer (NK) activity was measured after administration on the first day and before administration on the fifteenth day. The measurement of the NK activity was conducted in accordance with the method described in Later Biological Experimental Course, No. 5, Process for Study of Immunobiochemistry (Incorporation of The Japanese Biochemistry Society ed., published by Tokyo Kagaku Dojin Co.), page 186. That is, the NK activity was measured by using, as an indication, a cytotoxic activity determined by using ^51Cr-labelled K562 as a target cell. Incidentally, a ratio of effector cell to target cell (E/T ratio) was set at 10:1 or 20:1.

Consider `C[C@]12CC[C@H](OS(=O)(=O)O)CC1=CC[C@@H]1[C@@H]2CC[C@]2(C)C(=O)CC[C@@H]12` [Sodium salt of DHAS, dehydroepiandrosterone sulfate], for which, in the series with patients with CFS (patient A), the “Degree of improvement on the fourteenth day Lassitude” value was “improved”, the “Degree of improvement on the fourteenth day Psychoneurotic symptom” value was “Improved” and the “Degree of improvement on the fourteenth day Weakness” value is listed as “Improved”. In addition, in the series with patients with CFS (patient B), the “Degree of improvement on the fourteenth day Lassitude” value is on record as “improved”, the “Degree of improvement on the fourteenth day Psychoneurotic symptom” value is listed as “Improved” and the “Degree of improvement on the fourteenth day Weakness” value was “Improved”. This compound had a concentration at 13 h in series [1] (patient A, 1 day) of 6360 ng/mL. In series [1] (patient A, 2 days), this compound returned a concentration at 13 h of 6340 ng/mL and a concentration at 48 h of 2460 ng/mL. For the same compound, in series [1] (patient A), the concentration at 72 h stood at 2460 ng/mL, the concentration at 120 h worked out at 2160 ng/mL, the concentration at 192 h was found to be 2140 ng/mL and the concentration at 264 h is 2110 ng/mL. Also, the concentration at 336 h in series [1] (patient A) worked out at 3000 ng/mL. In series [1] (patient B, 1 day), this compound registered a concentration at 13 h of 8900 ng/mL. In series [1] (patient B, 2 days), this compound yielded a concentration at 13 h of 7650 ng/mL and a concentration at 48 h of 2680 ng/mL. For the same compound, in series [1] (patient B), the concentration at 72 h was determined as 2820 ng/mL, the concentration at 120 h worked out at 4140 ng/mL, the concentration at 192 h was 2050 ng/mL and the concentration at 264 h stood at 2480 ng/mL. The same compound registered a concentration at 336 h in series [1] (patient B) of 2800 ng/mL. In addition, in the series on ^51Cr-labelled K562 (E/T ratio 10:1, after administration on the fourteenth day (before administration on the first day: 7.2)), the “NK activity (%)” value stood at 12.1%. Besides, the “NK activity (%)” value with ^51Cr-labelled K562 (E/T ratio 20:1, after administration on the fourteenth day (before administration on the first day: 13.7)) worked out at 18.5%.
